Reference: patent US20120280189A1, “PERFLU[…] GASEOUS DIELECTRICS” (priority 2010, published 2012)

System: mice
Experiment: short-term inhalation test, acute toxicity
Format: in vivo
Conditions: mice exposed for four hours at 100,000 ppm in air

O=C(C(F)(F)C(F)(F)F)C(F)(C(F)(F)F)C(F)(F)F [CF3CF2C(O)CF(CF3)2, 1,1,1,2,2,4,5,5,5-nonafluoro-4-trifluoromethyl-pentan-3-one]
acute toxicity: low acute toxicity
